In US8383663B2, “Bendamustine anionic-catioinic cyclopolysaccharide compositions” (priority 2010, dated 2013):
Structures can show the parent of a compound that is named as a salt.

System: human breast carcinoma MDA-MB-231 cells
Assay: Growth of subcutaneous solid tumors of human breast carcinoma MDA-MB-231 cells in mice
Assay type: in vivo, Balb/c mice
Settings: 35 mg/kg i.v. on day 1, 2, 13 and 14, Average (SEM)
Experimental: Effect of bendamustine in a composition comprising sodium sulfobutyl ether β-cyclodextrin and heptakis(6-amino-6-deoxy-β-cyclodextrin) on growth of subcutaneous solid tumors of human breast carcinoma MDA-MB-231 cells in Balb/c mice.
Balb/c mice aging 5 to 6 weeks were purchased from Charles River Canada Inc. The animals were kept 5 per cage with an air filter cover under light (12 light/dark cycle, light on at 6H00) and temperature (22°±1° C.)-controlled environment. All manipulations of animals were performed under a sterilized laminar. The animals had ad libitum access to Purina mouse chow (Pro Lab PMH 4018, Trademark of Agway, Syracuse, N.Y.) and water. These animal studies were conducted according to the “Guidelines for Care and Use of Experimental Animals”.
Human breast cancer cells MDA-MB 231 were cultured in the appropriated culture medium. The cells were harvested in their logarithmic growth phase for the preparation of tumor implantation.
MDA-MB-231 cells (5.0×10^5 cells per an injection) in culture medium with 30% Matrigel were subcutaneously inoculated at 2 sides of the flank of each animal. Nine to ten days after implantation, when tumor size reaches to 0.5 to 0.8 cm in the diameter, the animals were be randomly divided into groups, 5 animals per group. The treatments by intravenously injection were performed on day 1, 2, 13 and 14. The control group was treated with isotonic saline. The reference group was treated with 35 mg/kg dose of bendamustine HCl in water (7 mg/mL). The test group was treated with 60 mg/kg dose (equitoxic to the reference group treatment) of the composition of the present invention, comprising 13 mg/g bendamustine HCl, 20% SBECD and 1% H6A, and mannitol, prepared according to the procedure set forth in Example 1.
Subcutaneous solid tumor measurements were performed on the day of first injection and at 3- to 4-day intervals thereafter. Two largest perpendicular diameters of each tumor were measured with calipers and tumor size was estimated using formula […] where TV: tumor volume; L: length; W: width.
The body weights of animals were also noted.

With `Cn1c(CCCC(=O)O)nc2cc(N(CCCl)CCCl)ccc21` [Reference BM, bendamustine HCl] the “Tumor weight after treatment” value (day 0) was 0.111 (0.013) g, the “Tumor weight after treatment” value (day 2) was 0.123 (0.016) g and the “Tumor weight after treatment” value (day 5) was 0.134 (0.015) g. The “Tumor weight after treatment” value (day 7) was 0.146 (0.017) g, the “Tumor weight after treatment” value (day 9) was 0.156 (0.017) g and the “Tumor weight after treatment” value (day 12) was 0.174 (0.018) g. The “Tumor weight after treatment” value (day 14) was 0.205 (0.021) g, the “Tumor weight after treatment” value (day 16) was 0.228 (0.024) g and the “Tumor weight after treatment” value (day 19) was 0.248 (0.035) g. For the same compound, the “Tumor weight after treatment” value (day 21) was 0.272 (0.042) g and the “Tumor weight after treatment” value (day 23) was 0.296 (0.047) g.
